# Measured values as given in patent US20120214862A1, “MODULATION OF FACTOR 7 EXPRESSION” (ISIS Pharmaceuticals, Inc., priority 2009, published 2012).
# In the oligonucleotide strings, read from the 5' end, every base follows the letter of its sugar. An asterisk marks phosphorothioate; unmarked linkages are phosphodiester. Other units and linkages are bracketed, terminal groups are in braces. A string of capitals states the bases alone. e = 2'-O-(2-methoxyethyl) (MOE); [5mC] = 5-methylcytosine; d = 2'-deoxy (DNA)
# System: human Factor 7 mRNA
# Test: Antisense inhibition of human Factor 7 mRNA in HepB3 cells, lipofectin, 50 nM, real-time RT-PCR
# Type: cell-based
# Details: Example 4; HepB3 cells, lipofectin, 50 nM, ~24 h, relative to untreated control
# Procedure, shortened: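 Percent inhibition, untreated cells as reference: derived from RNA collected about 24 hours post-transfection of 4,000-cell wells, with the human RTS 2927 primer probe set and adjustment for total RNA content (RIBOGREEN®).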
row,Substance,% Inhibition (human Factor 7 mRNA) [%]
1,422263 (antisense eG*eG*dA*dA*dG*dA*dA*dG*dG*dG*dA*d[5mC]*dG*dG*dA*eA*eG*eG*eT*eG) [compound 422263],19
2,422264 (antisense e[5mC]*eG*dG*dA*dA*dG*dA*dA*dG*dG*dG*dA*d[5mC]*dG*dG*eA*eA*eG*eG*eT) [compound 422264],24
3,422265 (antisense eG*e[5mC]*dG*dG*dA*dA*dG*dA*dA*dG*dG*dG*dA*d[5mC]*dG*eG*eA*eA*eG*eG) [compound 422265],34
4,422266 (antisense e[5mC]*eG*d[5mC]*dG*dG*dA*dA*dG*dA*dA*dG*dG*dG*dA*d[5mC]*eG*eG*eA*eA*eG) [compound 422266],13
5,422267 (antisense eG*e[5mC]*dG*d[5mC]*dG*dG*dA*dA*dG*dA*dA*dG*dG*dG*dA*e[5mC]*eG*eG*eA*eA) [compound 422267],38
6,422268 (antisense eA*eG*d[5mC]*dG*d[5mC]*dG*dG*dA*dA*dG*dA*dA*dG*dG*dG*eA*e[5mC]*eG*eG*eA) [compound 422268],63
7,422269 (antisense eG*eA*dG*d[5mC]*dG*d[5mC]*dG*dG*dA*dA*dG*dA*dA*dG*dG*eG*eA*e[5mC]*eG*eG) [compound 422269],27
8,422270 (antisense eT*eG*dA*dG*d[5mC]*dG*d[5mC]*dG*dG*dA*dA*dG*dA*dA*dG*eG*eG*eA*e[5mC]*eG) [compound 422270],15
9,422271 (antisense e[5mC]*eT*dG*dA*dG*d[5mC]*dG*d[5mC]*dG*dG*dA*dA*dG*dA*dA*eG*eG*eG*eA*e[5mC]) [compound 422271],32
10,422272 (antisense eA*e[5mC]*dT*dG*dA*dG*d[5mC]*dG*d[5mC]*dG*dG*dA*dA*dG*dA*eA*eG*eG*eG*eA) [compound 422272],12
11,422273 (antisense eT*eA*d[5mC]*dT*dG*dA*dG*d[5mC]*dG*d[5mC]*dG*dG*dA*dA*dG*eA*eA*eG*eG*eG) [compound 422273],0
12,422274 (antisense eT*eT*dA*d[5mC]*dT*dG*dA*dG*d[5mC]*dG*d[5mC]*dG*dG*dA*dA*eG*eA*eA*eG*eG) [compound 422274],24
13,422275 (antisense eG*eT*dT*dA*d[5mC]*dT*dG*dA*dG*d[5mC]*dG*d[5mC]*dG*dG*dA*eA*eG*eA*eA*eG) [compound 422275],42
14,422276 (antisense eG*eG*dT*dT*dA*d[5mC]*dT*dG*dA*dG*d[5mC]*dG*d[5mC]*dG*dG*eA*eA*eG*eA*eA) [compound 422276],66

# Same assay, conditions: Example 6 microwalk, nucleobases 15098 to 15122 of SEQ ID NO: 1; HepB3, lipofectin, 50 nM, ~24 h
row,Substance,% Inhibition (human Factor 7 mRNA) [%]
1,422284 (antisense e[5mC]*eA*d[5mC]*dA*d[5mC]*dA*dT*dG*dG*dA*dG*dT*d[5mC]*dA*dG*e[5mC]*eA*eT*e[5mC]*eG) [compound 422284],43
2,422285 (antisense eG*e[5mC]*dA*d[5mC]*dA*d[5mC]*dA*dT*dG*dG*dA*dG*dT*d[5mC]*dA*eG*e[5mC]*eA*eT*e[5mC]) [compound 422285],39
3,422286 (antisense eA*eG*d[5mC]*dA*d[5mC]*dA*d[5mC]*dA*dT*dG*dG*dA*dG*dT*d[5mC]*eA*eG*e[5mC]*eA*eT) [compound 422286],53
4,422287 (antisense e[5mC]*eA*dG*d[5mC]*dA*d[5mC]*dA*d[5mC]*dA*dT*dG*dG*dA*dG*dT*e[5mC]*eA*eG*e[5mC]*eA) [compound 422287],41
5,422288 (antisense eA*e[5mC]*dA*dG*d[5mC]*dA*d[5mC]*dA*d[5mC]*dA*dT*dG*dG*dA*dG*eT*e[5mC]*eA*eG*e[5mC]) [compound 422288],44
6,422289 (antisense eG*eA*d[5mC]*dA*dG*d[5mC]*dA*d[5mC]*dA*d[5mC]*dA*dT*dG*dG*dA*eG*eT*e[5mC]*eA*eG) [compound 422289],34

# Same assay, conditions: HepB3 cells; gapmers (5-10-5, 3-14-3, 2-13-5 MOE) targeted to nucleobases 4868 to 4899 of SEQ ID NO: 1
row,Substance,% Inhibition of human Factor 7 mRNA levels [%]
1,422290 (antisense eT*e[5mC]*dT*dG*d[5mC]*dA*dG*dG*dA*dG*d[5mC]*dG*dG*d[5mC]*d[5mC]*eT*eA*eA*eA*eT) [compound 422290],50
2,422291 (antisense eT*eT*d[5mC]*dT*dG*d[5mC]*dA*dG*dG*dA*dG*d[5mC]*dG*dG*d[5mC]*e[5mC]*eT*eA*eA*eA) [compound 422291],53
3,422293 (antisense eA*eG*dT*dT*d[5mC]*dT*dG*d[5mC]*dA*dG*dG*dA*dG*d[5mC]*dG*eG*e[5mC]*e[5mC]*eT*eA) [compound 422293],69
4,422297 (antisense e[5mC]*e[5mC]*d[5mC]*dG*dA*dG*dT*dT*d[5mC]*dT*dG*d[5mC]*dA*dG*dG*eA*eG*e[5mC]*eG*eG) [compound 422297],63
5,422298 (antisense eG*e[5mC]*d[5mC]*d[5mC]*dG*dA*dG*dT*dT*d[5mC]*dT*dG*d[5mC]*dA*dG*eG*eA*eG*e[5mC]*eG) [compound 422298],62
6,422299 (antisense eA*eG*d[5mC]*d[5mC]*d[5mC]*dG*dA*dG*dT*dT*d[5mC]*dT*dG*d[5mC]*dA*eG*eG*eA*eG*e[5mC]) [compound 422299],64
7,422300 (antisense eG*eA*dG*d[5mC]*d[5mC]*d[5mC]*dG*dA*dG*dT*dT*d[5mC]*dT*dG*d[5mC]*eA*eG*eG*eA*eG) [compound 422300],65
8,422301 (antisense eG*eG*dA*dG*d[5mC]*d[5mC]*d[5mC]*dG*dA*dG*dT*dT*d[5mC]*dT*dG*e[5mC]*eA*eG*eG*eA) [compound 422301],67
9,422302 (antisense eA*eG*dG*dA*dG*d[5mC]*d[5mC]*d[5mC]*dG*dA*dG*dT*dT*d[5mC]*dT*eG*e[5mC]*eA*eG*eG) [compound 422302],67

# Same assay, conditions: HepB3 cells; gapmers targeted to nucleobases 13760 to 13789 of SEQ ID NO: 1 (Table 10)
row,Substance,% Inhibition of human Factor 7 mRNA levels [%]
1,422258 (antisense eG*e[5mC]*d[5mC]*dA*d[5mC]*d[5mC]*d[5mC]*dG*d[5mC]*d[5mC]*dG*dG*d[5mC]*dT*d[5mC]*eT*eG*e[5mC]*eT*e[5mC]) [compound 422258],66
2,422259 (antisense e[5mC]*eG*d[5mC]*d[5mC]*dA*d[5mC]*d[5mC]*d[5mC]*dG*d[5mC]*d[5mC]*dG*dG*d[5mC]*dT*e[5mC]*eT*eG*e[5mC]*eT) [compound 422259],61
3,422260 (antisense eG*e[5mC]*dG*d[5mC]*d[5mC]*dA*d[5mC]*d[5mC]*d[5mC]*dG*d[5mC]*d[5mC]*dG*dG*d[5mC]*eT*e[5mC]*eT*eG*e[5mC]) [compound 422260],56
4,422261 (antisense eT*eG*d[5mC]*dG*d[5mC]*d[5mC]*dA*d[5mC]*d[5mC]*d[5mC]*dG*d[5mC]*d[5mC]*dG*dG*e[5mC]*eT*e[5mC]*eT*eG) [compound 422261],47
5,422262 (antisense e[5mC]*eT*dG*d[5mC]*dG*d[5mC]*d[5mC]*dA*d[5mC]*d[5mC]*d[5mC]*dG*d[5mC]*d[5mC]*dG*eG*e[5mC]*eT*e[5mC]*eT) [compound 422262],0

# Same assay, conditions: HepB3 cells; gapmers targeted to nucleobases 14707 to 14732 of SEQ ID NO: 1 (Table 11)
row,Substance,% Inhibition of human Factor 7 mRNA levels [%]
1,422277 (antisense e[5mC]*e[5mC]*dT*dG*dA*dG*dG*d[5mC]*d[5mC]*dA*dG*d[5mC]*dA*dG*dA*eT*e[5mC]*eA*e[5mC]*eG) [compound 422277],56
2,422278 (antisense eG*e[5mC]*d[5mC]*dT*dG*dA*dG*dG*d[5mC]*d[5mC]*dA*dG*d[5mC]*dA*dG*eA*eT*e[5mC]*eA*e[5mC]) [compound 422278],64
3,422279 (antisense eA*eG*d[5mC]*d[5mC]*dT*dG*dA*dG*dG*d[5mC]*d[5mC]*dA*dG*d[5mC]*dA*eG*eA*eT*e[5mC]*eA) [compound 422279],56
4,422280 (antisense e[5mC]*eA*dG*d[5mC]*d[5mC]*dT*dG*dA*dG*dG*d[5mC]*d[5mC]*dA*dG*d[5mC]*eA*eG*eA*eT*e[5mC]) [compound 422280],52
5,422281 (antisense eG*e[5mC]*dA*dG*d[5mC]*d[5mC]*dT*dG*dA*dG*dG*d[5mC]*d[5mC]*dA*dG*e[5mC]*eA*eG*eA*eT) [compound 422281],57
6,422282 (antisense eA*eG*d[5mC]*dA*dG*d[5mC]*d[5mC]*dT*dG*dA*dG*dG*d[5mC]*d[5mC]*dA*eG*e[5mC]*eA*eG*eA) [compound 422282],48
7,422283 (antisense e[5mC]*eA*dG*d[5mC]*dA*dG*d[5mC]*d[5mC]*dT*dG*dA*dG*dG*d[5mC]*d[5mC]*eA*eG*e[5mC]*eA*eG) [compound 422283],50
